Laboratory results taken from the supplement of paper PMC11208160.

Experiment: recombinant barcode read abundance after kanamycin selection (control-corrected) (log10(CPM+1)); higher = more efficient recombination; sequences stand for … in AGTGCAGAGAAAATCGGCCAGTTTTCTCTGCCTGCAGTCCGCATGCCGT…AGATTTATGCAGCGGACTGCCTTTCTCCCAAAGTGATAAACCGGACAGTATCATGGACCGGTTTTCCCGGTAATCCGTATTTGCAAGGTTGGTTTCACT; site = the 11-nt target
Method in brief: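 Two replicates per condition were plated: chloramphenicol/ampicillin LB agar for the control, and chloramphenicol/ampicillin/kanamycin with 0.1 mM IPTG for selection. The pooled E. coli screen behind them paired targets with IS621 bridge RNA target-binding loops. Recombination efficiency is expressed from averaged, control-corrected barcode counts per million at recombinant junctions, as log10(CPM+1).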
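Further: IS621 recombinase and bridge RNA in Escherichia coli cells.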

Sequence	recombinant barcode read abundance (log10)
CTGCGCCCTTGGGTTCTAACCTGTTGCCT (site CTGGGCCCTAG)	0.249
CTGCGCCCTTGGGTTCTAACCTGTTGCCT (site CTGTGCCCTAG)	0.567
CTGCGTGCTTGGGTTCTAACCTGTTGCCT (site CAGCGTGCTAG)	0.503
CTGCGTGCTTGGGTTCTAACCTGTTGCCT (site CCGCGTGCTAG)	0.909
CTGCGTGCTTGGGTTCTAACCTGTTGCCT (site CGGCGTGCTAG)	0.176
CTGCGTGCTTGGGTTCTAACCTGTTGCCT (site CTGCGTGCTAG)	0.83
CTGCTACCTTGGGTTCTAACCTGTTGCCT (site CAGCTACCTAG)	0.706
CTGCTACCTTGGGTTCTAACCTGTTGCCT (site CCGCTACCTAG)	0.386
CTGCTACCTTGGGTTCTAACCTGTTGCCT (site CGGCTACCTAG)	0.0908
CTGCTACCTTGGGTTCTAACCTGTTGCCT (site CTGCTACCTAG)	1.13
CTGCTAGCTTGGGTTCTAACCTGTTGCAG (site CTGCTAGCTCT)	1.08
CTGCTAGCTTGGGTTCTAACCTGTTGCAG (site GACAGGCCTAC)	0.289
CTGGAACCTTGGGTTCTAACCTGTTGCGG (site CTAGAAGCTCC)	0
CTGGAACCTTGGGTTCTAACCTGTTGCGG (site CTGGAACCTCC)	1.25
CTGGAGTCTTGGGTTCTAACCTGTTGCCT (site CTGGAGTCTAG)	2.33
CTGGAGTCTTGGGTTCTAACCTGTTGCCT (site CTGGCGTCTAG)	0.322
CTGGAGTCTTGGGTTCTAACCTGTTGCCT (site CTGGGGTCTAG)	0.412
CTGGAGTCTTGGGTTCTAACCTGTTGCCT (site CTGGTGTCTAG)	0.793
CTGGTATCTTGGGTTCTAACCTGTTGCTT (site CTGGTATCTAA)	0.509
CTGGTATCTTGGGTTCTAACCTGTTGCTT (site GGCTACCCTTT)	0.0591
CTGGTGTCTTGGGTTCTAACCTGTTGCCT (site CTGGAGTCTAG)	0.0957
CTGGTGTCTTGGGTTCTAACCTGTTGCCT (site CTGGCGTCTAG)	0.248

Sequence	recombinant barcode read abundance (log10)
CTGGTGTCTTGGGTTCTAACCTGTTGCCT (site CTGGGGTCTAG)	0.0939
CTGGTGTCTTGGGTTCTAACCTGTTGCCT (site CTGGTGTCTAG)	2.42
CTGTATACTTGGGTTCTAACCTGTTGCCA (site CTATATACTTG)	0.113
CTGTATACTTGGGTTCTAACCTGTTGCCA (site CTGTATACTTG)	0.175
CTGTCGCCTTGGGTTCTAACCTGTTGCCT (site CTATCGCCTAG)	0.699
CTGTCGCCTTGGGTTCTAACCTGTTGCCT (site CTCTCGCCTAG)	0.0526
CTGTCGCCTTGGGTTCTAACCTGTTGCCT (site CTGTCGCCTAG)	0.276
CTGTCGCCTTGGGTTCTAACCTGTTGCCT (site CTTTCGCCTAG)	0.0305
CTGTCTCCTTGGGTTCTAACCTGTTGCCT (site ATGTCTCCTAG)	0.221
CTGTCTCCTTGGGTTCTAACCTGTTGCCT (site CTGTCTCCTAG)	1.29
CTGTCTCCTTGGGTTCTAACCTGTTGCCT (site GTGTCTCCTAG)	0.0715
CTGTCTCCTTGGGTTCTAACCTGTTGCCT (site TTGTCTCCTAG)	0.3
CTGTGAACTTGGGTTCTAACCTGTTGCCT (site CAGTGAACTAG)	0.128
CTGTGAACTTGGGTTCTAACCTGTTGCCT (site CCGTGAACTAG)	0.133
CTGTGAACTTGGGTTCTAACCTGTTGCCT (site CGGTGAACTAG)	0.216
CTGTGAACTTGGGTTCTAACCTGTTGCCT (site CTGTGAACTAG)	0.679
CTGTGCCCTTGGGTTCTAACCTGTTGCCT (site CTGAGCCCTAG)	0.105
CTGTGCCCTTGGGTTCTAACCTGTTGCCT (site CTGCGCCCTAG)	0.0771
CTGTGCCCTTGGGTTCTAACCTGTTGCCT (site CTGGGCCCTAG)	0.0673
CTGTGCCCTTGGGTTCTAACCTGTTGCCT (site CTGTGCCCTAG)	0.574
CTGTTCCCTTGGGTTCTAACCTGTTGCGG (site CTGATCCCTCC)	0.291
CTGTTCCCTTGGGTTCTAACCTGTTGCGG (site CTGCTCCCTCC)	0.797

Sequence	recombinant barcode read abundance (log10)
CTGTTCCCTTGGGTTCTAACCTGTTGCGG (site CTGGTCCCTCC)	0.129
CTGTTCCCTTGGGTTCTAACCTGTTGCGG (site CTGTTCCCTCC)	1.05
CTTACGGCTTGGGTTCTAACCTGTTGCCT (site CTTACAGCTAG)	0.186
CTTACGGCTTGGGTTCTAACCTGTTGCCT (site CTTACCGCTAG)	0.196
CTTACGGCTTGGGTTCTAACCTGTTGCCT (site CTTACGGCTAG)	0.0569
CTTACGGCTTGGGTTCTAACCTGTTGCCT (site CTTACTGCTAG)	0.262
CTTCATCCTTGGGTTCTAACCTGTTGCCT (site CTTCAACCTAG)	0.0199
CTTCATCCTTGGGTTCTAACCTGTTGCCT (site CTTCACCCTAG)	0.34
CTTCATCCTTGGGTTCTAACCTGTTGCCT (site CTTCAGCCTAG)	0.0613
CTTCATCCTTGGGTTCTAACCTGTTGCCT (site CTTCATCCTAG)	0.466
CTTCGGACTTGGGTTCTAACCTGTTGCTT (site CTTCGGACTAA)	0.769
CTTCGGACTTGGGTTCTAACCTGTTGCTT (site GAGTCTCCTCC)	0.133
CTTCGGGCTTGGGTTCTAACCTGTTGCAA (site CTTCGGACTTT)	0.217
CTTCGGGCTTGGGTTCTAACCTGTTGCAA (site CTTCGGGCTTT)	0.915
CTTCGTCCTTGGGTTCTAACCTGTTGCGT (site CTTCGTCCTAA)	0.102
CTTCGTCCTTGGGTTCTAACCTGTTGCGT (site CTTCGTCCTAC)	1.59
CTTCGTCCTTGGGTTCTAACCTGTTGCGT (site CTTCGTCCTAG)	0.126
CTTCGTCCTTGGGTTCTAACCTGTTGCGT (site CTTCGTCCTAT)	0.797
CTTGCGACTTGGGTTCTAACCTGTTGCTT (site CTTGCGACTAA)	0.391
CTTGCGACTTGGGTTCTAACCTGTTGCTT (site TGCATAGCTTG)	0.0884
CTTGCTCCTTGGGTTCTAACCTGTTGCAT (site AGACGGACTTG)	0.0627
CTTGCTCCTTGGGTTCTAACCTGTTGCAT (site CTTGCTCCTAT)	0.227

Sequence	recombinant barcode read abundance (log10)
CTTTAGTCTTGGGTTCTAACCTGTTGCTA (site AAAGGTCCTCT)	0.0491
CTTTAGTCTTGGGTTCTAACCTGTTGCTA (site CTTTAGTCTTA)	0.174
CTTTCACCTTGGGTTCTAACCTGTTGCCT (site CTTTCACCTAG)	0.547
CTTTCACCTTGGGTTCTAACCTGTTGCCT (site CTTTCGTCTAG)	0.0614
CTTTCGCCTTGGGTTCTAACCTGTTGCCT (site CTATCGCCTAG)	0.0688
CTTTCGCCTTGGGTTCTAACCTGTTGCCT (site CTCTCGCCTAG)	0.102
CTTTCGCCTTGGGTTCTAACCTGTTGCCT (site CTGTCGCCTAG)	0.0968
CTTTCGCCTTGGGTTCTAACCTGTTGCCT (site CTTTCGCCTAG)	0.0534
CTTTGCCCTTGGGTTCTAACCTGTTGCCT (site CATTGCCCTAG)	0.179
CTTTGCCCTTGGGTTCTAACCTGTTGCCT (site CCTTGCCCTAG)	0.0734
CTTTGCCCTTGGGTTCTAACCTGTTGCCT (site CGTTGCCCTAG)	0.0892
CTTTGCCCTTGGGTTCTAACCTGTTGCCT (site CTTTGCCCTAG)	0.687
GAAAGGGCTTGGGTTCTAACCTGTTGCCT (site GAAAAGGCTAG)	0.183
GAAAGGGCTTGGGTTCTAACCTGTTGCCT (site GAAACGGCTAG)	0.0842
GAAAGGGCTTGGGTTCTAACCTGTTGCCT (site GAAAGGGCTAG)	0.566
GAAAGGGCTTGGGTTCTAACCTGTTGCCT (site GAAATGGCTAG)	0.0705
GAAATTCCTTGGGTTCTAACCTGTTGCCT (site GAAAATCCTAG)	0.148
GAAATTCCTTGGGTTCTAACCTGTTGCCT (site GAAACTCCTAG)	0.266
GAAATTCCTTGGGTTCTAACCTGTTGCCT (site GAAAGTCCTAG)	0.132
GAAATTCCTTGGGTTCTAACCTGTTGCCT (site GAAATTCCTAG)	0.371
